# According to PubChem BioAssay (NCI):
#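 Test compounds were applied to cells in 96-well plates for 48 hours at 5 doses. GI50 marks 50% less growth. Definition used: TGI = concentration required for complete inhibition of growth.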
# Tests used:
# Assay in all cases: NCI tumour cell line growth inhibition, 48 h
# SK-OV-3 ovarian = system: SK-OV-3 ovarian
# HS 578T breast = system: HS 578T breast
# SF-539 CNS = system: SF-539 CNS
# SNB-19 CNS = system: SNB-19 CNS
# HT29 colon = system: HT29 colon
# SN12C renal = system: SN12C renal
# 786-0 renal = system: 786-0 renal
# MALME-3M melanoma = system: MALME-3M melanoma
# SF-268 CNS = system: SF-268 CNS
# A498 renal = system: A498 renal
SMILES,TGI (SK-OV-3 ovarian),TGI (HS 578T breast),TGI (SF-539 CNS),TGI (SNB-19 CNS),TGI (HT29 colon),TGI (SN12C renal),TGI (786-0 renal),TGI (MALME-3M melanoma),TGI (SF-268 CNS),TGI (A498 renal),GI50 (HS 578T breast),GI50 (SF-539 CNS),GI50 (SNB-19 CNS),GI50 (HT29 colon),GI50 (SN12C renal),GI50 (A498 renal),GI50 (MALME-3M melanoma),GI50 (SF-268 CNS)
O=C1CC2CCC(C1)S2=O (configuration not stated),> 100 µM,> 100 µM,> 100 µM,> 100 µM,> 100 µM,> 100 µM,> 100 µM,> 100 µM,> 100 µM,–,–,–,–,–,–,–,–,–
NC1CC=C(COC(=O)C(O)(c2ccccc2)C2CC2)CC1 (configuration not stated),> 100 µM,–,> 100 µM,> 100 µM,> 100 µM,> 100 µM,> 100 µM,> 100 µM,> 100 µM,–,–,–,–,–,–,–,–,–
COc1ccc(N2NC(c3ccccc3)(c3ccccc3)C(C)C2=O)cc1 (configuration not stated),–,> 100 µM,> 100 µM,> 100 µM,> 100 µM,> 100 µM,–,> 100 µM,> 100 µM,> 100 µM,–,–,–,–,–,–,–,–
Cc1ccc(CCC(=O)C(=O)O)s1,> 100 µM,–,> 100 µM,> 100 µM,> 100 µM,> 100 µM,–,> 100 µM,> 100 µM,> 100 µM,–,–,–,–,–,–,–,–
CNc1ncnc2c1cnn2Cc1cn(COCC(O)CO)nn1 (configuration not stated),> 100 µM,20.3 µM,> 100 µM,> 100 µM,> 100 µM,> 100 µM,> 100 µM,–,22 µM,> 100 µM,–,–,–,–,–,–,–,–
Cc1ccc(N=C2C(=Nc3ccc(C)cc3)N(c3ccc(C)cc3)C(=S)N2C(=O)c2ccccc2)cc1,> 100 µM,> 100 µM,> 100 µM,> 100 µM,> 100 µM,> 100 µM,> 100 µM,> 100 µM,> 100 µM,–,–,–,–,–,–,–,–,–
COc1ccc(C2=NN=C3C(c4ccccc4)=Nc4ccccc4N3C2)cc1,> 100 µM,–,> 100 µM,> 100 µM,74.3 µM,> 100 µM,> 100 µM,66.3 µM,> 100 µM,> 100 µM,–,–,–,–,–,–,–,–
N#CC(C#N)=C1C(=O)NC(N)=C1C#N,> 100 µM,> 100 µM,–,> 100 µM,> 100 µM,> 100 µM,> 100 µM,> 100 µM,> 100 µM,> 100 µM,–,–,–,–,–,–,–,–
O=c1oc2ccccc2c(O)c1C(C/C(CCN1CCCC1)=N\Nc1ccccc1)c1ccccc1 (configuration not stated),> 100 µM,–,> 100 µM,> 100 µM,> 100 µM,> 100 µM,> 100 µM,> 100 µM,> 100 µM,> 100 µM,–,–,–,–,–,–,–,–
CSc1scc2c1/C(=N/NC(N)=O)CCC2,> 100 µM,> 100 µM,> 100 µM,> 100 µM,> 100 µM,> 100 µM,> 100 µM,–,> 100 µM,> 100 µM,–,–,–,–,–,–,–,–
Cc1c(C(=O)O)n2cnnc2c2ccccc12,> 100 µM,> 100 µM,> 100 µM,> 100 µM,> 100 µM,> 100 µM,> 100 µM,–,> 100 µM,> 100 µM,–,–,–,–,–,–,–,–
CCOC(=O)[C@@H]1ON2OC(OC3CCCC3(c3ccccc3)c3ccccc3)C(OC(C)=O)[C@H]3OC(=O)[C@@H]1C32 (some centres not stated),> 100 µM,> 100 µM,> 100 µM,> 100 µM,> 100 µM,> 100 µM,> 100 µM,–,> 100 µM,> 100 µM,–,–,–,–,–,–,–,–
C=C(c1ccccc1)c1ccccc1-c1cc(-c2ccccc2)cc(-c2ccccc2)n1,–,> 100 µM,> 100 µM,> 100 µM,> 100 µM,> 100 µM,> 100 µM,> 100 µM,> 100 µM,> 100 µM,–,–,–,–,–,–,–,–
NC(N)=NCCCC(NC(=O)OCCCCn1ccc(N)nc1=O)C(=O)O (configuration not stated),> 100 µM,> 100 µM,> 100 µM,> 100 µM,> 100 µM,> 100 µM,> 100 µM,–,> 100 µM,> 100 µM,–,–,–,–,–,–,–,–
CC1(C)N=C(c2ccccn2)C(c2ccccn2)=NC1(C)C,–,–,> 100 µM,> 100 µM,> 100 µM,> 100 µM,> 100 µM,> 100 µM,> 100 µM,> 100 µM,–,–,–,–,–,–,–,–
O=c1[nH]c(=S)c2cc3c(=S)[nH]c(=O)n(CCO)c3nc2n1CCO,> 100 µM,–,> 100 µM,> 100 µM,–,> 100 µM,> 100 µM,> 100 µM,> 100 µM,> 100 µM,–,–,–,–,–,–,–,–
COc1cc(Br)c(CC2C3=C(CCN2C(=O)C2CCC2)CC(=O)CC3)cc1O (configuration not stated),> 100 µM,85.5 µM,> 100 µM,> 100 µM,71.6 µM,> 100 µM,95.8 µM,92.7 µM,> 100 µM,–,–,–,–,–,–,–,–,–
COc1ccc(-c2nn(-c3ccc(NC(=O)Nc4ccc(Cl)c(C(F)(F)F)c4)cc3)cc2-c2ccncc2)cc1Cl,–,4.22 µM,4 µM,11 µM,4.57 µM,8.69 µM,–,5.09 µM,19.5 µM,5.18 µM,1.1 µM,1.53 µM,2.35 µM,1.65 µM,2.23 µM,1.62 µM,1.59 µM,2.8 µM
C=CCC(C(=O)Nc1cccc2[nH]cnc12)C(=O)OCC (configuration not stated),> 100 µM,> 100 µM,> 100 µM,> 100 µM,> 100 µM,> 100 µM,> 100 µM,–,> 100 µM,> 100 µM,–,–,–,–,–,–,–,–
CC(=O)/C(=C/N1CCNC1=S)C(=O)Nc1ccccc1C,> 100 µM,> 100 µM,> 100 µM,> 100 µM,> 100 µM,> 100 µM,> 100 µM,–,> 100 µM,> 100 µM,–,–,–,–,–,–,–,–
CN1C/C(=C\C=C\c2ccccc2)C(=O)/C(=C/C=C/c2ccccc2)C1,> 100 µM,–,> 100 µM,> 100 µM,> 100 µM,> 100 µM,> 100 µM,> 100 µM,> 100 µM,> 100 µM,–,–,–,–,–,–,–,–
Brc1ccc2c(-c3csc(-c4c[nH]c5ccccc45)n3)c[nH]c2c1,44.8 µM,–,30.8 µM,31.7 µM,29 µM,39.2 µM,33.8 µM,31 µM,34.5 µM,32.2 µM,–,–,–,–,–,–,–,–
O=C1c2ccccc2C(=O)c2[nH]c(Cc3ccc(F)cc3)nc21,–,–,32 µM,51.3 µM,30.3 µM,51.3 µM,43.8 µM,29.6 µM,66.3 µM,–,–,–,–,–,–,–,–,–
